Results as given in US20170050957A1, “4-AMINO-6-(HETEROCYCLIC)PICOLINATES AND 6-AMINO-2-(HETEROCYCLIC)PYRIMIDINE-4-CARBOXYLATES AND THEIR USE AS HERBICIDES” (Dow AgroSciences LLC, priority 2013, published 2017).
Where two headings read alike, the source gives them in different places.

What was measured:
[1] = tested on: Key Broadleaf Weed and Crop Species; assay: Post-emergent Test II herbicidal activity (Table 15); assay type: in vivo; settings: post-emergence, 336 h, 14 d; for pest or weed control at 35 g/ha: 35 g ai/ha; for pest or weed control at 70 g/ha: 70 g ai/ha; for pest or weed control at 140 g/ha: 140 g ai/ha
How it was run: (§1)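 Plants at first-second true leaf stage, grown 7-21 d in greenhouse (~15 h photoperiod, 23-29 °C day), were track-sprayed at 187 L/ha with compound in acetone/DMSO/water/isopropanol/crop oil/Triton X-155 at a high rate plus 1/2× to 1/16× dilutions. Injury scored visually after 14 d versus untreated plants, 0 (none) to 100% (complete kill).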

undesirable vegetation = assay: Herbicidal activity, comparison X is CF with X is CH; assay type: in vivo; settings: 1.08 and 1.09 vs 1.21 and 1.22; 1.15 and 1.16 vs 1.23 and 1.24; A is A15
[2] = tested on: Key Grass and Sedge Weeds as well as Grass Crops; assay: Post-emergent Test II herbicidal activity (Table 16); assay type: in vivo; settings: post-emergence, 336 h, 14 d; for pest or weed control at 35 g/ha: 35 g ai/ha; for pest or weed control at 70 g/ha: 70 g ai/ha; for pest or weed control at 140 g/ha: 140 g ai/ha
How it was run: as §1

[3] = Abutilon theophrasti, velvetleaf (Abutilon theophrasti), read-out: Visual Growth Reduction (%) 14 Days After Application, ABUTH
[4] = Amaranthus retroflexus, redroot pigweed (Amaranthus retroflexus), read-out: Visual Growth Reduction (%) 14 Days After Application, AMARE
[5] = Brassica napus, oilseed rape, canola (Brassica napus), read-out: Visual Growth Reduction (%) 14 Days After Application, BRSNN
[6] = Chenopodium album, lambsquarters (Chenopodium album), read-out: Visual Growth Reduction (%) 14 Days After Application, CHEAL
[7] = Euphorbia heterophylla, wild poinsettia (Euphorbia heterophylla), read-out: Visual Growth Reduction (%) 14 Days After Application, EPHHL
[8] = Helianthus annuus, sunflower (Helianthus annuus), read-out: Visual Growth Reduction (%) 14 Days After Application, HELAN
[9] = Cyperus esculentus, yellow nutsedge (Cyperus esculentus), read-out: Visual Growth Reduction (%) 14 Days After Application, CYPES
[10] = Echinochloa crus-galli, barnyardgrass (Echinochloa crus-galli), read-out: Visual Growth Reduction (%) 14 Days After Application, ECHCG
[11] = Oryza sativa, rice (Oryza sativa), read-out: Visual Growth Reduction (%) 14 Days After Application, ORYSA
[12] = Setaria faberi, giant foxtail (Setaria faberi), read-out: Visual Growth Reduction (%) 14 Days After Application, SETFA
[13] = Triticum aestivum, wheat, spring (Triticum aestivum), read-out: Visual Growth Reduction (%) 14 Days After Application, TRZAS
[14] = Zea mays, maize, corn (Zea mays), read-out: Visual Growth Reduction (%) 14 Days After Application, ZEAMX

`COC(=O)c1nc(-c2ccc3cc[nH]c3c2)c(F)c(N)c1Cl` [Compound 1.08] gave a pest or weed control at 35 g/ha [1, 3] of 85 to 94%, a pest or weed control at 70 g/ha [1, 3] of 95 to 100% and a pest or weed control at 140 g/ha [1, 3] of 95 to 100%. It also gave a pest or weed control at 35 g/ha [1, 4] of 95 to 100%, a pest or weed control at 70 g/ha [1, 4] of 95 to 100% and a pest or weed control at 140 g/ha [1, 4] of 95 to 100%. It also gave a pest or weed control at 35 g/ha [1, 5] of 45 to 59%, a pest or weed control at 70 g/ha [1, 5] of 75 to 84% and a pest or weed control at 140 g/ha [1, 5] of 85 to 94%. For the same compound, the pest or weed control at 35 g/ha [1, 6] was 95 to 100%, the pest or weed control at 70 g/ha [1, 6] was 95 to 100% and the pest or weed control at 140 g/ha [1, 6] was 95 to 100%. The pest or weed control at 35 g/ha [1, 7] was 95 to 100%, the pest or weed control at 70 g/ha [1, 7] was 95 to 100% and the pest or weed control at 140 g/ha [1, 7] was 95 to 100%. It also gave a pest or weed control at 35 g/ha [1, 8] of 85 to 94%, a pest or weed control at 70 g/ha [1, 8] of 95 to 100% and a pest or weed control at 140 g/ha [1, 8] of 95 to 100%. The “activity when X is CF compared with X is CH” value (undesirable vegetation) was “significant increase in activity”, the pest or weed control at 35 g/ha [2, 9] was 0 to 29% and the pest or weed control at 70 g/ha [2, 9] was 0 to 29%. It also gave a pest or weed control at 140 g/ha [2, 9] of 0 to 29%, a pest or weed control at 35 g/ha [2, 10] of 85 to 94% and a pest or weed control at 70 g/ha [2, 10] of 95 to 100%. It also gave a pest or weed control at 140 g/ha [2, 10] of 95 to 100%, a pest or weed control at 35 g/ha [2, 11] of 0 to 29% and a pest or weed control at 70 g/ha [2, 11] of 0 to 29%. The pest or weed control at 140 g/ha [2, 11] was 0 to 29%, the pest or weed control at 35 g/ha [2, 12] was 0 to 29% and the pest or weed control at 70 g/ha [2, 12] was 60 to 74%. The pest or weed control at 140 g/ha [2, 12] was 75 to 84%, the pest or weed control at 35 g/ha [2, 13] was 0 to 29% and the pest or weed control at 70 g/ha [2, 13] was 0 to 29%. It also gave a pest or weed control at 140 g/ha [2, 13] of 30 to 44%, a pest or weed control at 35 g/ha [2, 14] of 45 to 59% and a pest or weed control at 70 g/ha [2, 14] of 75 to 84%. The pest or weed control at 140 g/ha [2, 14] was 85 to 94% and the melting point was 66 to 69 °C.
